≈ marks a conversion by molar mass, not a printed value.
What was measured:
Format in all cases: cell-based
[1] = system: Staphylococcus aureus (methicillin-resistant and sensitive clinical isolates; ATCC29213); assay: MIC by micro broth dilution (CLSI), Staphylococcus aureus; conditions: for MIC50 / MIC90: Clinical strain; for MIC50: read-out: MIC50; for MIC90: read-out: MIC90; for MIC: Standard strain ATCC29213, read-out: MIC
Excerpt: (§1) The test bacteria were one strain of clinically isolated carbapenem-resistant Escherichia coli, two strains of carbapenem-resistant Acinetobacter baumannii, two strains of methicillin-resistant Staphylococcus aureus, two strains of sensitive Staphylococcus aureus, and 7 strains of Klebsiella pneumoniae. Duplicate strains isolated from the same patient were eliminated. There were also […] quality control strains Escherichia coli ATCC25922, Acinetobacter baumannii ATCC19606, Staphylococcus aureus ATCC29213, Klebsiella pneumoniae ATCC BAA-1705, ATCC 43816, ATCC BAA-2472, ATCC-BAA-1898, ATCC-BAA-1899, NCTC 13440 and ATCC-BAA-2470. There were 24 strains in total.
(§2) According to the recommendations of relevant documents of the American Clinical and Laboratory Standards Institute (CLSI), the micro broth dilution method was used to determine the MIC of the compounds of the present invention against clinically isolated strains. • 3.1 Formulation of antibacterial drug: All the compounds of the present invention were dissolved in DMSO. The drug concentration range was 128 mg/L to 0.06 mg/L. • 3.2 Culture medium: The drug susceptibility test used cation adjusted Mueller-Hinton broth (CAMHB). • 3.3 Amount of inoculum: The test bacteria cultured overnight were adjusted to 0.5 McFarland turbidity by the direct colony suspension method, and diluted 100 folds, the final inoculum amount was 10^5 CFU/mL. • 3.4 Culture conditions: The test bacteria were cultured at 35±2° C. for 20 hours in air.
(§3) The drug susceptibility test results were interpretated by reference to CLSI 2019 M100 29th edition criteria.
(§4) The quality control strains of the drug susceptibility test were Escherichia coli ATCC 25922, Acinetobacter baumannii ATCC 19606, Staphylococcus aureus ATCC 29213, Klebsiella pneumoniae ATCC BAA-1705, ATCC 43816, ATCC BAA-2472, ATCC-BAA-1898, ATCC-BAA-1899, NCTC 13440 and ATCC-BAA-2470.
(§5) The results of drug susceptibility test were statistically analyzed by WHONET software (version 5.6).

[2] = system: Acinetobacter baumannii (carbapenem-resistant clinical isolates; ATCC19606); assay: MIC by micro broth dilution (CLSI), Acinetobacter baumannii; conditions: Acinetobacter baumannii; for MIC50 / MIC90: ATCC19606, Clinical strain; for MIC50: read-out: MIC50; for MIC90: read-out: MIC90; for MIC: Standard strain ATCC19606, read-out: MIC
Excerpt: as §1, §2, §3, §4, §5

[3] = system: Escherichia coli (carbapenem-resistant clinical isolate; ATCC25922); assay: MIC by micro broth dilution (CLSI), Escherichia coli; conditions: Escherichia coli; for MIC50 / MIC90: ATCC25922, Clinical strain; for MIC50: read-out: MIC50; for MIC90: read-out: MIC90; for MIC: Standard strain ATCC25922, read-out: MIC
Excerpt: as §1, §2, §3, §4, §5

SMILES	MIC50 [1]	MIC90 [1]	MIC [1]	MIC50 [2]	MIC90 [2]	MIC [2]	MIC50 [3]	MIC90 [3]	MIC [3]
O=[N+]([O-])c1ccc2cc(CN3CCOCC3)cnc2c1O [Example 97, 3-(morpholinomethyl)-7-nitroquinolin-8-ol]	128 µg/mL (≈ 442 µM)	128 µg/mL (≈ 442 µM)	128 µg/mL (≈ 442 µM)	128 µg/mL (≈ 442 µM)	> 128 µg/mL	128 µg/mL (≈ 442 µM)	> 128 µg/mL	> 128 µg/mL	> 128 µg/mL
CCN(CC)Cc1cnc2c(O)c([N+](=O)[O-])ccc2c1 [Example 98, 3-((diethylamino)methyl)-7-nitroquinolin-8-ol]	32 µg/mL (≈ 116 µM)	64 µg/mL (≈ 232 µM)	64 µg/mL (≈ 232 µM)	64 µg/mL (≈ 232 µM)	128 µg/mL (≈ 465 µM)	64 µg/mL (≈ 232 µM)	128 µg/mL (≈ 465 µM)	128 µg/mL (≈ 465 µM)	64 µg/mL (≈ 232 µM)
CNCc1cc([N+](=O)[O-])c(O)c2ncccc12.Cl.Cl [Example 99, 5-((methylamino)methyl)-7-nitroquinolin-8-ol dihydrochloride]	> 128 µg/mL	> 128 µg/mL	> 128 µg/mL	> 128 µg/mL	> 128 µg/mL	128 µg/mL	> 128 µg/mL	> 128 µg/mL	> 128 µg/mL
O=C1CN(Cc2cnc3c(O)c([N+](=O)[O-])ccc3c2)CCN1 [Example 100, 4-((8-hydroxy-7-nitroquinolin-3-yl)methyl)piperazin-2-one]	> 128 µg/mL	> 128 µg/mL	> 128 µg/mL	> 128 µg/mL	> 128 µg/mL	> 128 µg/mL	> 128 µg/mL	> 128 µg/mL	> 128 µg/mL
Cl.Cl.Cl.O=[N+]([O-])c1cc(CN2CCNCC2)c2cccnc2c1O [Example 101, 7-nitro-5-(piperazin-1-ylmethyl)quinolin-8-ol trihydrochloride]	> 128 µg/mL	> 128 µg/mL	> 128 µg/mL	> 128 µg/mL	> 128 µg/mL	> 128 µg/mL	> 128 µg/mL	> 128 µg/mL	> 128 µg/mL
Cl.Cl.Cl.O=[N+]([O-])c1ccc2cc(CN3CCNCC3)cnc2c1O [Example 102, 7-nitro-3-(piperazin-1-ylmethyl)quinolin-8-ol trihydrochloride]	> 128 µg/mL	> 128 µg/mL	> 128 µg/mL	> 128 µg/mL	> 128 µg/mL	> 128 µg/mL	> 128 µg/mL	> 128 µg/mL	128 µg/mL
CCNCc1cc([N+](=O)[O-])c(O)c2ncccc12.Cl.Cl [Example 103, 5-((ethylamino)methyl)-7-nitroquinolin-8-ol dihydrochloride]	> 128 µg/mL	> 128 µg/mL	> 128 µg/mL	> 128 µg/mL	> 128 µg/mL	> 128 µg/mL	> 128 µg/mL	> 128 µg/mL	> 128 µg/mL
CN(C)Cc1cc([N+](=O)[O-])c(O)c2nccc(C(F)(F)F)c12 [Example 104, 5-((dimethylamino)methyl)-7-nitro-4-(trifluoromethyl)quinolin-8-ol]	> 128 µg/mL	> 128 µg/mL	> 128 µg/mL	> 128 µg/mL	> 128 µg/mL	> 128 µg/mL	> 128 µg/mL	> 128 µg/mL	128 µg/mL (≈ 406 µM)
O=[N+]([O-])c1c(F)c(Cl)c2cccnc2c1O [Example 110, 5-chloro-6-fluoro-7-nitroquinolin-8-ol]	2 µg/mL (≈ 8.24 µM)	2 µg/mL (≈ 8.24 µM)	4 µg/mL (≈ 16.5 µM)	8 µg/mL (≈ 33 µM)	8 µg/mL (≈ 33 µM)	8 µg/mL (≈ 33 µM)	16 µg/mL (≈ 66 µM)	64 µg/mL (≈ 264 µM)	8 µg/mL (≈ 33 µM)
O=[N+]([O-])c1cc(Cl)c2c(N3CCCC(c4ccccc4)C3)ccnc2c1O (stereo not drawn) [Example 111, 5-chloro-7-nitro-4-(3-phenylpiperidin-1-yl)quinolin-8-ol]	> 128 µg/mL	> 128 µg/mL	> 128 µg/mL	> 128 µg/mL	> 128 µg/mL	> 128 µg/mL	> 128 µg/mL	> 128 µg/mL	> 128 µg/mL
O=[N+]([O-])c1ccc2cc(C3CC3)cnc2c1O [Example 112, 3-cyclopropyl-7-nitroquinolin-8-ol]	2 µg/mL (≈ 8.69 µM)	4 µg/mL (≈ 17.4 µM)	4 µg/mL (≈ 17.4 µM)	8 µg/mL (≈ 34.7 µM)	32 µg/mL (≈ 139 µM)	32 µg/mL (≈ 139 µM)	64 µg/mL (≈ 278 µM)	128 µg/mL (≈ 556 µM)	32 µg/mL (≈ 139 µM)
[2H]c1ccc2c(Cl)cc([N+](=O)[O-])c(O)c2n1 [Example 113, 5-chloro-7-nitroquinolin-2-d-8-ol]	4 µg/mL (≈ 17.7 µM)	4 µg/mL (≈ 17.7 µM)	4 µg/mL (≈ 17.7 µM)	8 µg/mL (≈ 35.5 µM)	16 µg/mL (≈ 70.9 µM)	8 µg/mL (≈ 35.5 µM)	16 µg/mL (≈ 70.9 µM)	16 µg/mL (≈ 70.9 µM)	8 µg/mL (≈ 35.5 µM)
O=[N+]([O-])c1c(Br)c(Cl)c2cccnc2c1O [Example 114, 6-bromo-5-chloro-7-nitroquinolin-8-ol]	2 µg/mL (≈ 6.59 µM)	2 µg/mL (≈ 6.59 µM)	2 µg/mL (≈ 6.59 µM)	4 µg/mL (≈ 13.2 µM)	8 µg/mL (≈ 26.4 µM)	8 µg/mL (≈ 26.4 µM)	64 µg/mL (≈ 211 µM)	64 µg/mL (≈ 211 µM)	16 µg/mL (≈ 52.7 µM)
O=[N+]([O-])c1c(Cl)c(Cl)c2cccnc2c1O [Example 115, 5,6-dichloro-7-nitroquinolin-8-ol]	1 µg/mL (≈ 3.86 µM)	1 µg/mL (≈ 3.86 µM)	2 µg/mL (≈ 7.72 µM)	4 µg/mL (≈ 15.4 µM)	4 µg/mL (≈ 15.4 µM)	4 µg/mL (≈ 15.4 µM)	64 µg/mL (≈ 247 µM)	64 µg/mL (≈ 247 µM)	16 µg/mL (≈ 61.8 µM)
[2H]c1ccc2ccc([N+](=O)[O-])c(O)c2n1 [Example 116, 7-nitroquinolin-2-d-8-ol]	4 µg/mL (≈ 20.9 µM)	8 µg/mL (≈ 41.8 µM)	4 µg/mL (≈ 20.9 µM)	4 µg/mL (≈ 20.9 µM)	4 µg/mL (≈ 20.9 µM)	4 µg/mL (≈ 20.9 µM)	16 µg/mL (≈ 83.7 µM)	16 µg/mL (≈ 83.7 µM)	8 µg/mL (≈ 41.8 µM)
[2H]c1cc2cccnc2c(O)c1[N+](=O)[O-] [Example 117, 7-nitroquinolin-6-d-8-ol]	4 µg/mL (≈ 20.9 µM)	8 µg/mL (≈ 41.8 µM)	4 µg/mL (≈ 20.9 µM)	4 µg/mL (≈ 20.9 µM)	4 µg/mL (≈ 20.9 µM)	4 µg/mL (≈ 20.9 µM)	8 µg/mL (≈ 41.8 µM)	16 µg/mL (≈ 83.7 µM)	8 µg/mL (≈ 41.8 µM)

Source: patent US20240246916A1, “7-NITRO-8-HYDROXYQUINOLINE DERIVATIVES, PREPARATION METHOD THEREFORE AND MEDICAL USE THEREOF” (Jiangsu Yahong Meditech Co., Ltd., priority 2021, published 2024)
